Assay results taken from patent US9238034B2, “FN14 antagonists and therapeutic uses thereof” (THE TRANSLATIONAL GENOMICS RESEARCH INSTITUTE, priority 2013, dated 2016).
Like-named read-outs stand apart in the source and are kept apart here.

Biological target: T1, Fn14-TWEAK binding (Homo sapiens, UniProt Q9NP84)
T1 construct: the human Fc fragment-tagged Fn14 extracellular domain (R&D Systems) was captured; purchased R&D Systems (Fn14-Fc); Peprotech (recombinant TWEAK)
T1 sequence (Q9NP84 28-80 limits assumed): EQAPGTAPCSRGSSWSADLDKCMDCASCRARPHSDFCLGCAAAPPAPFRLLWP
Assay: Double sandwich ELISA small molecule screening of TWEAK binding to captured Fn14-Fc
Procedure: Double Sandwich ELISA. sTWEAK and sTWEAK variant proteins were synthesized as described above. The expression level of each IVTT synthesized sTWEAK protein was analyzed by western blot analysis and used in approximately equal amounts in the ELISA. To assay the binding of wild type sTWEAK and sTWEAK variants to Fn14, the human Fc fragment-tagged Fn14 extracellular domain (R&D Systems) was captured in an Immuno 96-microwell white plate by adding 100 μL of 0.025 μg/mL Fn14-Fc to wells coated with goat anti-human Fcγ fragment specific monoclonal antibody. After capture, the wells were washed 3× with Dulbecco's Phosphate Buffered Saline (DPBS) containing 0.05% Tween-20. Unbound sites were blocked by addition of 100 μL of blocking solution containing 0.05% Tween-20, 1% BSA, and 3% normal goat serum (NGS) in DPBS for 1 hr at room temperature. 0.01 μL of sTWEAK or sTWEAK variant made with the human IVTT kit or 2 μL of sTWEAK or sTWEAK variant made with the rabbit IVTT kit was diluted in 100 μL of sample diluent (DPBS+1% BSA+0.005% Tween-20) and then added to the wells for 2 hr followed by addition of 100 μL of 50 ng/mL biotinylated TWEAK detection antibody (R&D Systems) in sample diluent. Following incubation for additional 2 hr at room temperature, wells were washed 3× with DPBS containing 0.05% Tween-20 and bound biotinylated TWEAK antibody was detected by incubation with an HRP-conjugated streptavidin. The total luminescent signal was obtained using Femto ELISA kit (Pierce Biochemical) and compared to the standard curve signal obtained from the binding of 0-4000 pg/mL recombinant TWEAK (Peprotech inc) to Fn14-Fc. Using 5-parameter logistic curve fitting for standard curve analysis (Sigmaplot 11.0, SyStat Software Inc.), binding of sTWEAK or TWEAK variant to Fn14-Fc was determined. The data represents that observed for at least four replicate assays.
The small molecule screening was performed using the ELISA assay described above with minor modifications. Briefly, after capturing Fn14-Fc in the microwell plate, 80 μl of drug solution in sample diluent was added to desired wells and incubated for 2 hrs at room temperature. Subsequently, 20 μL of 2500 pg/mL (5×) TWEAK was added to each well to achieve final TWEAK concentration of 500 pg/mL and incubated for additional 2 hr at room temperature. Bound TWEAK was detected as described in the protocol above. All small molecule inhibitors were screened at 25 μM final concentration (final DMSO concentration of 0.125%) in duplicate. Cyclohexamide, a non-specific small molecule, at 25 μM concentration was used as negative control. The anti-Fn14 antibody ITEM-4, added at 2.5 μg/mL, was used as a positive control for complete blockade of TWEAK binding. Reduction in TWEAK binding due to compound addition or controls was calculated by using standard curve (Separate standard curve was obtained for every screening plate).

[1] = Table 5, 25 μM, average of duplicate, read-out: % Reduction in TWEAK Binding, Average
[2] = Table 5, 25 μM, replicate 1, read-out: % Reduction in TWEAK Binding, Data 1
[3] = Table 5, 25 μM, replicate 2, read-out: % Reduction in TWEAK Binding, Data 2
[4] = Table 4, second screening iteration, 25 μM, average of duplicate, read-out: % Reduction in TWEAK Binding, Average
[5] = Table 4, second screening iteration, 25 μM, replicate 1, read-out: % Reduction in TWEAK Binding, Data 1
[6] = Table 4, second screening iteration, 25 μM, replicate 2, read-out: % Reduction in TWEAK Binding, Data 2
[7] = second screening iteration, 25 μM, average, read-out: inhibition of TWEAK binding to Fn14
[8] = Table 3, first round of screening, 25 μM, average of duplicate, read-out: % Reduction in TWEAK Binding, Average
[9] = Table 3, first round of screening, 25 μM, replicate 1, read-out: % Reduction in TWEAK Binding, Data 1
[10] = Table 3, first round of screening, 25 μM, replicate 2, read-out: % Reduction in TWEAK Binding, Data 2
[11] = first round of screening, 25 μM, read-out: average inhibition in TWEAK-Fn14 binding

Row | inhibition at 25 µM [1] [%] | inhibition at 25 µM [2] [%] | inhibition at 25 µM [3] [%] | inhibition at 25 µM [4] [%] | inhibition at 25 µM [5] [%] | inhibition at 25 µM [6] [%] | inhibition at 25 µM [7] [%] | % Reduction in TWEAK Binding, Average (Table 4, second screening iteration, 25 μM, average of duplicate) [%] | % Reduction in TWEAK Binding, Data 2 (Table 4, second screening iteration, 25 μM, replicate 2) [%] | inhibition at 25 µM [8] [%] | inhibition at 25 µM [9] [%] | inhibition at 25 µM [10] [%] | inhibition at 25 µM (first round of screening, 25 μM, read-out: single point activities / individual data points, inhibition of the Fn14-TWEAK interaction) [%] | inhibition at 25 µM [11] [%] | Compound
1 | 19.7 | 20.9 | 18.5 | 19.7 | 20.9 | 18.5 | – | – | – | – | – | – | – | – | O=C1CN(C(=O)CSc2ccccc2)c2ccccc2N1 [Compound D479-0271]
2 | 10.3 | 0.98 | 19.6 | – | – | – | – | – | – | 10.3 | 0.98 | 19.6 | > 15 | – | COc1ccc(C2N[C@H](C(=O)O)Cc3c2[nH]c2ccccc32)cc1O (some centres unmarked) [Compound D715-0114]
3 | 11.7 | 9.77 | 13.6 | – | – | – | – | – | – | 11.7 | 9.77 | 13.6 | – | – | COC(=O)[C@H]1Cc2c([nH]c3ccccc23)CN1 [Compound D715-0140]
4 | 10.3 | 9.04 | 11.5 | – | – | – | – | – | – | 10.3 | 9.04 | 11.5 | – | – | O=C(Cc1c[nH]c2ccccc12)Nc1ccc2oc(=O)ccc2c1 [Compound D715-0817]
5 | 15.3 | 17.1 | 13.6 | – | – | – | – | – | – | 15.3 | 17.1 | 13.6 | – | > 15 | Cc1cc(C)n(CC(=O)NCCc2c[nH]c3ccccc23)n1 [Compound D715-0890]
6 | 14.5 | 14.3 | 14.7 | – | – | – | – | – | – | 14.5 | 14.3 | 14.7 | – | < 15 | O=C(O)C[C@@H]1NC(=O)c2ccccc2NC1=O [Compound D715-2673]
7 | 10.4 | 13 | 7.81 | – | – | – | – | – | – | 10.4 | 13 | 7.81 | – | – | COc1ccccc1NC(=O)Cc1csc(NC(=O)Nc2ccccc2)n1 [Compound F042-0072]
8 | 22 | 20.8 | 23.2 | 22 | 20.8 | 23.2 | – | – | – | – | – | – | – | – | O=C(NCc1n[nH]c(=O)c2ccccc12)C(=O)N1CCCCCC1 [Compound F044-0011]
9 | 13.7 | 12.8 | 14.7 | – | – | – | – | – | – | 13.7 | 12.8 | 14.7 | – | < 15 | CC(C)NC(=O)C(=O)NCc1n[nH]c(=O)c2ccccc12 [Compound F044-0043]

Further lines, the molecule ahead of its results:

Row | Compound | inhibition at 25 µM [1] [%] | inhibition at 25 µM [2] [%] | inhibition at 25 µM [3] [%] | inhibition at 25 µM [4] [%] | inhibition at 25 µM [5] [%] | inhibition at 25 µM [6] [%] | inhibition at 25 µM [7] [%] | % Reduction in TWEAK Binding, Average (Table 4, second screening iteration, 25 μM, average of duplicate) [%] | % Reduction in TWEAK Binding, Data 2 (Table 4, second screening iteration, 25 μM, replicate 2) [%] | inhibition at 25 µM [8] [%] | inhibition at 25 µM [9] [%] | inhibition at 25 µM [10] [%] | inhibition at 25 µM (first round of screening, 25 μM, read-out: single point activities / individual data points, inhibition of the Fn14-TWEAK interaction) [%] | inhibition at 25 µM [11] [%]
10 | CCS(=O)(=O)c1ccc(OCc2cc(=O)n3oc(C)cc3n2)c(NC(=O)COc2ccccc2C)c1 | 19.6 | 22.2 | 17.1 | – | – | – | – | – | – | – | – | – | – | –
11 | O=C(c1csc(S(=O)(=O)NCc2ccccn2)c1)N1CCCCCC1 | 12 | 15.3 | 8.76 | – | – | – | – | – | – | – | – | – | – | –
12 | O=C(NCc1ccc(F)cc1)C1CCCN(c2nc3c(-c4ccccc4)csc3c(=O)[nH]2)C1 (centres unmarked) | 22 | 28.1 | 15.9 | – | – | – | – | – | – | – | – | – | – | –
13 | O=C(NCc1ccncc1)C1CCCN(c2nc3c(-c4ccccc4)csc3c(=O)[nH]2)C1 (centres unmarked) | 14.3 | 13.4 | 15.2 | – | – | – | – | – | – | – | – | – | – | –
14 | Cc1cc(NC(=O)CSc2ccccc2)ccc1Cl [Compound 1068-0114] | 13.4 | 21.9 | 4.93 | 13.4 | 21.9 | 4.93 | – | – | – | – | – | – | – | –
15 | COc1ccc(-c2nnc(SCC(=O)Nc3ccccc3OC)nc2-c2ccc(OC)cc2)cc1 [Compound 3809-1067] | 32.1 | 34.5 | 29.8 | 32.1 | 34.5 | 29.8 | 32.1 | – | – | – | – | – | – | –
16 | O=C(CSc1cccc2cccnc12)Nc1ccc2ccccc2c1 [Compound 4084-0026] | 11.1 | 15.3 | 6.85 | 11.1 | 15.3 | 6.85 | – | – | – | – | – | – | – | –
17 | CCC(=O)Nc1ccccc1-c1ccccc1NC(=O)CC [Compound 4478-7056] | 16.5 | 15 | 18 | 16.5 | 15 | 18 | – | – | – | – | – | – | – | –
18 | O=C(CSc1nnc(-c2ccccc2)c(-c2ccccc2)n1)Nc1ccc(S(=O)(=O)Nc2nccs2)cc1 [Compound 4981-0539] | 11.7 | 11.3 | 12.2 | 11.7 | 11.3 | 12.2 | – | – | – | – | – | – | – | –
19 | CCCSc1nnc(-c2ccccc2NC(=O)CC)c(O)n1 [Compound 5511-0142] | 10.5 | 7.2 | 13.8 | 10.5 | 7.2 | 13.8 | – | – | – | – | – | – | – | –
20 | C=CCSc1nnc(-c2ccccc2NC(=O)CC)c(O)n1 [Compound 6969-1085] | 16.8 | 15.5 | 18 | 16.8 | 15.5 | 18 | – | – | – | – | – | – | – | –
21 | CCCC(=O)Nc1ccccc1-c1nnc(SC)nc1O [Compound 7033-0155] | 20.2 | 19.5 | 20.9 | 20.2 | 19.5 | 20.9 | – | – | – | – | – | – | – | –
22 | COc1ccc(-c2nnc(SCC(=O)Nc3cccc4ccccc34)nc2-c2ccccc2)cc1 [Compound 8014-3315] | 15.7 | 18.6 | 12.7 | 15.7 | 18.6 | 12.7 | – | – | – | – | – | – | – | –
23 | Cc1cccc(-n2c(=O)c3[nH]c4ccccc4sc=3c2=O)c1 [Compound 8211-0292] | 36.7 | 35.6 | 37.8 | 36.7 | 35.6 | 37.8 | 36.7 | – | – | – | – | – | – | –
24 | Nc1ccccc1SCC(=O)Nc1cccc2nsnc12 [Compound 8415-09495] | 19.5 | 17.8 | 21.2 | 19.5 | 17.8 | 21.2 | – | – | – | – | – | – | – | –
25 | Cc1cccc(NC(=O)CS(=O)(=O)c2ccccc2)c1 [Compound C200-5958] | – | – | – | – | – | – | – | −5.743 | −5.743 | – | – | – | – | –
26 | CCn1c(=O)c(S(=O)(=O)c2ccccc2)c(O)c2ccccc21 [Compound C200-7197] | 26.3 | 27.4 | 25.1 | 26.3 | 27.4 | 25.1 | – | – | – | – | – | – | – | –
